Earlier results as cited in patent US7666442B2 (Tracie Martyn International, LLC, priority 2004, dated 2010).

How the values were obtained:
[1] = orally at dosages above 500 mg/kg body weight in animal studies
[2] = using only natural ingredients (botanicals, antioxidants, coffe oil and microfine zinc oxide)

Q: For `NCCC(=O)N[C@@H](Cc1cnc[nH]1)C(=O)O` [Carnosine, beta-alanyl-L-histidine], which “Safety after oral administration” value [1] is on record?
A: safe

Q: Which spf [2] does the source give for `COc1ccc(C=CC(=O)OCCC(C)C)cc1` [isoamyl-p-methoxycinnamate] here?
A: greater than 30

Q: Which Water solubility does the source give for `Cc1ncc(CO)c(CN)c1O` [Pyridoxamine, 4-aminomethyl-5-hydroxy-6-methyl-3-pyridinemethanol] here?
A: water-soluble
